Measurements from patent US5409933A, “Quinoline derivatives and processes for preparing the same” (priority 1993, dated 1995).
Where a name gives a salt, the structure may show the parent alone. Read-outs that look alike come from different tables or passages of the source.

Columns and labels:
Assay in all cases: In Vitro Anti-Bacterial Activity Test (MIC, agar dilution)
Format in all cases: cell-based
[1] = system: Staphylococcus aureus 503; settings: Staphylococcus aureus 503; Muller-Hinton agar, 37° C., 18 hours; read-out: MIC
Protocol: (§1) The above in vitro antibacterial activity test was carried out in accordance with the agar culture medium dilution method (Hoechst 345) by using Muller-Hinton agar medium to determine the minimum inhibitory concentration (MIC).
(§2) The strains having 10^7 C.F.U./ml were inoculated on the culture medium, and the growth of the strains was observed after incubating them at 37° C. for 18 hours, in which ciprofloxacin was used as a control antibacterial agent. In this test, twenty typical strains were used.

[2] = system: Pseudomonas aeruginosa 1771; settings: Pseudomonas aeruginosa 1771; Muller-Hinton agar, 37° C., 18 hours; read-out: MIC
Protocol: as §1, §2

[3] = system: Pseudomonas aeruginosa 9027; settings: Muller-Hinton agar, 37° C., 18 hours, read-out: MIC
Protocol: as §1, §2

[4] = system: Escherichia coli 1507E; settings: Muller-Hinton agar, 37° C.
Protocol: as §1, §2

[5] = system: Klebsiella oxytoca 1082E; settings: Klebsiella oxytoca 1082E; Muller-Hinton agar, 37° C., 18 hours; read-out: MIC
Protocol: as §1, §2

[6] = system: Salmonella typhimurium; settings: Salmonella enterica; Salmonella typhimurium; Muller-Hinton agar, 37° C., 18 hours; read-out: MIC
Protocol: as §1, §2

[7] = system: Escherichia coli DC2; settings: Escherichia coli, DC2, 18 h
Protocol: as §1, §2

[8] = system: Escherichia coli 078
Protocol: as §1, §2

[9] = system: Streptococcus pyogenes 77A
Protocol: as §1, §2

[10] = system: Streptococcus faecium MD8b; settings: Enterococcus faecium, Muller-Hinton agar, 37° C., 18 hours, read-out: MIC
Protocol: as §1, §2

[11] = system: Enterobacter cloacae 1321E
Protocol: as §1, §2

[12] = system: Pseudomonas aeruginosa 1592E; settings: Muller-Hinton agar, 37° C., 18 hours, read-out: MIC
Protocol: as §1, §2

[13] = system: Staphylococcus aureus 285; settings: Staphylococcus aureus, 285, 18 h, Staphylococcus aureus 285; Muller-Hinton agar, 37° C., 18 hours; read-out: MIC
Protocol: as §1, §2

[14] = system: Escherichia coli TEM; settings: Escherichia coli, 18 h, Muller-Hinton agar, 37° C.
Protocol: as §1, §2

[15] = system: Klebsiella aerogenes 1522E; settings: Klebsiella aerogenes, 1522E, 18 h, Klebsiella aerogenes 1522E; Muller-Hinton agar, 37° C., 18 hours; read-out: MIC
Protocol: as §1, §2

[16] = system: Pseudomonas aeruginosa 1771M; settings: Pseudomonas aeruginosa, 1771M, 18 h, Muller-Hinton agar, 37° C.
Protocol: as §1, §2

[17] = system: Streptococcus pyogenes 308A; settings: Muller-Hinton agar, 37° C., 18 hours, read-out: MIC
Protocol: as §1, §2

[18] = system: Enterobacter cloacae P99; settings: Enterobacter cloacae, P99, 18 h
Protocol: as §1, §2

[19] = system: Escherichia coli DC0; settings: Muller-Hinton agar, 37° C., 18 hours, read-out: MIC
Protocol: as §1, §2

[20] = system: Staphylococcus aureus SG511; settings: Staphylococcus aureus SG511; Muller-Hinton agar, 37° C., 18 hours; read-out: MIC
Protocol: as §1, §2

[21] = Streptococcus pyogenes 77A, Muller-Hinton agar, 37° C., 18 hours, read-out: MIC
[22] = Enterobacter cloacae 1321E, Muller-Hinton agar, 37° C., 18 hours, read-out: MIC
[23] = Escherichia coli 078, Muller-Hinton agar, 37° C., 18 hours, read-out: MIC
[24] = Streptococcus pyogenes, 77A, 18 h

CCOC(=O)C(C(=O)OCC)C(=O)c1cn(C2CC2)c2c(OC)c(N3CC[C@@H](NC)C3)c(F)cc2c1=O [Example 58, 1-cyclopropyl-6-fluoro-8-methoxy-7-(3-3R-methylaminopyrrolidin-1-yl)-3-(2,2-diethoxycarbonylacetyl)-1,4-dihydro-4-oxoquinoline hydrochloride]
MIC [1]: 0.195 µg/mL | MIC [2]: 1.56 µg/mL | MIC [3]: 1.56 µg/mL | MIC ([4]; Escherichia coli, 1507E, 18 h): 0.391 µg/mL | MIC [5]: 0.049 µg/mL | MIC [6]: 0.195 µg/mL | MIC [7]: 0.195 µg/mL | MIC ([8]; Escherichia coli, 078, 18 h): 0.098 µg/mL | MIC [9, 21]: 1.56 µg/mL | MIC [10]: 1.56 µg/mL | MIC [11, 22]: 0.098 µg/mL | MIC [12]: 1.56 µg/mL | MIC [13]: 0.195 µg/mL | MIC [14]: 0.098 µg/mL | MIC [15]: 0.195 µg/mL | MIC [16]: 0.781 µg/mL | MIC [17]: 1.56 µg/mL | MIC [18]: 0.098 µg/mL | MIC [19]: 1.56 µg/mL | MIC [20]: 0.195 µg/mL

CCOC(=O)CC(=O)c1cn(C2CC2)c2c(F)c(N3CCC(N)C3)c(F)cc2c1=O (centres unmarked) [Example 21, 1-cyclopropyl-6,8-difluoro-7-(3-aminopyrrolidin-1-yl)-3-(2-ethoxycarbonylacetyl)-1,4-dihydro-4-oxoquinoline hydrochloride]
MIC [1]: 0.049 µg/mL | MIC [2]: 0.195 µg/mL | MIC [3]: 0.391 µg/mL | MIC ([4]; Escherichia coli, 1507E, 18 h): 0.013 µg/mL | MIC [5]: 0.004 µg/mL | MIC [6]: 0.013 µg/mL | MIC [7]: 0.049 µg/mL | MIC [8, 23]: 0.004 µg/mL | MIC [9, 21]: 0.391 µg/mL | MIC [10]: 0.781 µg/mL | MIC [11, 22]: < 0.002 µg/mL | MIC [12]: 0.391 µg/mL | MIC [13]: 0.049 µg/mL | MIC [14]: 0.013 µg/mL | MIC [15]: 0.025 µg/mL | MIC [16]: 0.098 µg/mL | MIC [17]: 0.781 µg/mL | MIC [18]: 0.007 µg/mL | MIC [19]: 0.098 µg/mL | MIC [20]: 0.049 µg/mL

CN[C@H]1CCN(c2c(F)cc3c(=O)c(C(=O)C[N+](=O)[O-])cn(C4CC4)c3c2OC)C1 [Example 65, 1-cyclopropyl-6-fluoro-8-methoxy-7-(3-3S-methylaminopyrrolidin-1-yl)-3-(2-nitroacetyl)-1,4-dihydro-4-oxoquinoline hydrochloride]
MIC [1]: 0.098 µg/mL | MIC [2]: 1.56 µg/mL | MIC [3]: 1.56 µg/mL | MIC ([4]; Escherichia coli, 1507E, 18 h): 0.195 µg/mL | MIC [5]: 0.049 µg/mL | MIC [6]: 0.781 µg/mL | MIC [7]: 0.195 µg/mL | MIC ([8]; Escherichia coli, 078, 18 h): 0.049 µg/mL | MIC [9, 24]: 0.781 µg/mL | MIC [10]: 0.781 µg/mL | MIC [11, 22]: 0.013 µg/mL | MIC [12]: 1.56 µg/mL | MIC [13]: 0.049 µg/mL | MIC [14]: 0.049 µg/mL | MIC [15]: 0.049 µg/mL | MIC [16]: 1.56 µg/mL | MIC [17]: 0.781 µg/mL | MIC [18]: 0.013 µg/mL | MIC [19]: 0.781 µg/mL | MIC [20]: 0.049 µg/mL

CCOC(=O)C(C(=O)OCC)C(=O)c1cn(C2CC2)c2c(F)c(N3CCC(N)C3)c(F)cc2c1=O (centres unmarked) [Example 20, 1-cyclopropyl-6,8-difluoro-7-(3-aminopyrrolidin-1-yl)-3-(2,2-diethoxycarbonylacetyl)-1,4-dihydro-4-oxoquinoline hydrochloride]
MIC [1]: 0.025 µg/mL | MIC [2]: 0.195 µg/mL | MIC [3]: 0.391 µg/mL | MIC ([4]; Escherichia coli, 1507E, 18 h): 0.007 µg/mL | MIC [5]: < 0.002 µg/mL | MIC [6]: < 0.002 µg/mL | MIC [7]: 0.013 µg/mL | MIC [8, 23]: < 0.002 µg/mL | MIC [9, 21]: 0.098 µg/mL | MIC [10]: 0.098 µg/mL | MIC [11, 22]: < 0.002 µg/mL | MIC [12]: 0.195 µg/mL | MIC [13]: 0.013 µg/mL | MIC [14]: < 0.002 µg/mL | MIC [15]: 0.025 µg/mL | MIC [16]: 0.098 µg/mL | MIC [17]: 0.391 µg/mL | MIC [18]: < 0.002 µg/mL | MIC [19]: 0.098 µg/mL | MIC [20]: 0.013 µg/mL

CN[C@@H]1CCN(c2c(F)cc3c(=O)c(C(=O)C[N+](=O)[O-])cn(C4CC4)c3c2Cl)C1 [Example 61, 1-cyclopropyl-6-fluoro-8-chloro-7-(3-3R-methylaminopyrrolidin-1-yl)-3-(2-nitroacetyl)-1,4-dihydro-4-oxoquinoline hydrochloride]
MIC [1]: 0.025 µg/mL | MIC [2]: 0.195 µg/mL | MIC [3]: 0.195 µg/mL | MIC ([4]; Escherichia coli, 1507E, 18 h): 0.007 µg/mL | MIC [5]: 0.004 µg/mL | MIC [6]: 0.004 µg/mL | MIC [7]: 0.013 µg/mL | MIC [8, 23]: < 0.002 µg/mL | MIC [9, 21]: 0.098 µg/mL | MIC [10]: 0.098 µg/mL | MIC ([11]; Enterobacter cloacae, 1321E, 18 h): 0.007 µg/mL | MIC [12]: 0.195 µg/mL | MIC [13]: 0.025 µg/mL | MIC [14]: 0.007 µg/mL | MIC [15]: 0.013 µg/mL | MIC [16]: 0.098 µg/mL | MIC [17]: 0.391 µg/mL | MIC [18]: 0.007 µg/mL | MIC [19]: 0.049 µg/mL | MIC [20]: 0.013 µg/mL

NC1CCN(c2nc3c(cc2F)c(=O)c(C(=O)C[N+](=O)[O-])cn3-c2ccc(F)cc2F)C1 (centres unmarked) [Example 8, 1-(2,4-difluorophenyl)-6-fluoro-7-(3-aminopyrrolidin-1-yl)-3-(2-nitroacetyl)-1,4-dihydro-4-oxo-1,8-naphthyridinehydrochloride]
MIC [1]: 0.025 µg/mL | MIC [2]: 0.391 µg/mL | MIC [3]: 0.391 µg/mL | MIC ([4]; Escherichia coli, 1507E, 18 h): 0.007 µg/mL | MIC [5]: < 0.002 µg/mL | MIC [6]: 0.007 µg/mL | MIC [7]: 0.013 µg/mL | MIC ([8]; Escherichia coli, 078, 18 h): 0.007 µg/mL | MIC [9, 21]: 0.195 µg/mL | MIC [10]: 0.391 µg/mL | MIC [11, 22]: < 0.002 µg/mL | MIC [12]: 0.195 µg/mL | MIC [13]: 0.025 µg/mL | MIC [14]: < 0.002 µg/mL | MIC [15]: 0.007 µg/mL | MIC [16]: 0.049 µg/mL | MIC [17]: 0.781 µg/mL | MIC [18]: < 0.002 µg/mL | MIC [19]: 0.195 µg/mL | MIC [20]: 0.049 µg/mL

CCOC(=O)C(C(=O)OCC)C(=O)c1cn(C2CC2)c2c(Cl)c(N3CCC(N)C3)c(F)cc2c1=O (centres unmarked) [Example 22, 1-cyclopropyl-6-fluoro-8-chloro-7-(3-aminopyrrolidin-1-yl)-3-(2,2-diethoxycarbonylacetyl)-1,4-dihydro-4-oxoquinoline hydrochloride]
MIC [1]: 0.049 µg/mL | MIC [2]: 0.781 µg/mL | MIC [3]: 0.781 µg/mL | MIC ([4]; 18 hours, read-out: MIC): < 0.002 µg/mL | MIC [5]: < 0.002 µg/mL | MIC [6]: 0.004 µg/mL | MIC [7]: 0.025 µg/mL | MIC [8, 23]: 0.004 µg/mL | MIC [9, 24]: 0.781 µg/mL | MIC [10]: 0.391 µg/mL | MIC [11, 22]: < 0.002 µg/mL | MIC [12]: 0.781 µg/mL | MIC [13]: 0.098 µg/mL | MIC [14]: < 0.002 µg/mL | MIC [15]: 0.025 µg/mL | MIC [16]: 0.195 µg/mL | MIC [17]: 0.391 µg/mL | MIC [18]: 0.004 µg/mL | MIC [19]: 0.098 µg/mL | MIC [20]: 0.049 µg/mL
